Entries after “also recorded” stand apart in the source; their conditions may differ.
Legend:
[1] = tested on: nontypeable Haemophilus influenzae; settings: COPD alveolar macrophages, compared to vehicle
Protocol: (§1) Human alveolar macrophages were purified from individual BAL samples by centrifugation and seeded onto 6-well tissue culture plates. After incubation for 2 h, non-adherent cells were removed and the adherent cells were incubated with R, S-sulforaphane (5 μM; LKT Laboratories, Inc., St. Paul, Minn.) and or DMSO in RPMI 1640 culture medium with 10% FBS and 1% penicillin-streptomycin (Invitrogen, Carlsbad, Calif.). After 16-20 h, adherent cells were scraped, suspended in RPMI 1640 culture media and plated onto 96-well tissue culture plates for bacterial phagocytosis and clearance assays. […] For MARCO antibody-depletion, alveolar macrophages were incubated with human anti-MARCO antibody (1 μg/ml; (Hycult, Uden, The Netherlands) for 4 hours prior to bacterial challenge.
Sputum isolates of nontypeable H. influenzae and P. aeruginosa obtained from patients with COPD at the Department of Veterans Affairs, Western New York Healthcare System were used (S. Sethi, N. Evans, B. J. Grant, T. F. Murphy, N Engl J Med 347, 465 (Aug. 15, 2002); C. S. Berenson, M. A. Garlipp, L. J. Grove, J. Maloney, S. Sethi, J Infect Dis 194, 1375 (Nov. 15, 2006); T. F. Murphy et al., Am J Respir Crit Care Med 177, 853 (Apr. 15, 2008); T. F. Murphy, A. L. Brauer, A. T. Schiffmacher, S. Sethi, Am J Respir Crit Care Med 170, 266 (Aug. 1, 2004)). […]
(§2) Bacterial phagocytosis was quantified using a flow cytometry analysis.

Pseudomonas aeruginosa = experiment: Phagocytosis assay, FITC-labeled PA, alveolar macrophages; format: cell-based, human
Protocol: as §1
Sputum isolates of nontypeable H. influenzae and P. aeruginosa obtained from patients with COPD at the Department of Veterans Affairs, Western New York Healthcare System were used (S. Sethi, N. Evans, B. J. Grant, T. F. Murphy, N Engl J Med 347, 465 (Aug. 15, 2002); C. S. Berenson, M. A. Garlipp, L. J. Grove, J. Maloney, S. Sethi, J Infect Dis 194, 1375 (Nov. 15, 2006); T. F. Murphy et al., Am J Respir Crit Care Med 177, 853 (Apr. 15, 2008); T. F. Murphy, A. L. Brauer, A. T. Schiffmacher, S. Sethi, Am J Respir Crit Care Med 170, 266 (Aug. 1, 2004)). For bacterial growth, H. influenzae was cultured on chocolate agar or grown in brain heart infusion broth supplemented with 20 μg/mlNAD and 10 μg/ml hemin at 35° C. in 5% CO2. P. aeruginosa was cultured on LB agar plates or in LB broth at 37° C. For FITC-labeling of bacteria, heat inactivated PA and NTHI (10^9 CFU/ml) were resuspended in 1 ml of labeling buffer (0.1 M NaHCO3, pH 9.2) and incubated with fluorescein isothiocyanate (FITC) (Sigma) under constant stiffing in the dark at room temperature for 1 h. Finally, bacteria were washed three times with PBS and dialyzed overnight against PBS. FITC-labeled bacteria were resuspended with PBS at a concentration of 10^9/ml.
as §2

IL-8 promoter = experiment: ChIP of IL-8 promoter (histone acetylation, HDAC2 binding) in alveolar macrophages; format: cell-based, human
Protocol: (§3) For inducing corticosteroid resistance, PMs were exposed to cigarette smoke condensate (CSC, 100 μg/ml; Murty Pharmaceuticals, Lexington, Ky.) for 16 h. Exposure to S-nitrosoglutathione (GSNO, 10 μM) was limited to 4 h. […] For assessing corticosteroid responsiveness, macrophages were incubated with dexamethasone (1 μM, Sigma) for 1 h followed by LPS (100 ng/ml, Sigma) for additional 4 h.
Chromatin immunoprecipitation was performed as described previously (Hogg, J. C. & Timens, W., Annu Rev Pathol (2008)). Briefly, cells were fixed in ˜1% formaldehyde in cell growth media for 10 minutes followed by glycine fixation. Cells were then sonicated in ChIP-lysis buffer containing a protease inhibitor cocktail after incubation on ice for 30 minutes. […] sonication, the samples were spun at maximum speed for 12 minutes in a cold microcentrifuge. The supernatants were then addressed as input samples. A part of the input sample was precleared by using a 50% slurry of protein A/G beads prepared in immunoprecipitation (IP) buffer for 2 hours in the cold, following which the beads were centrifuged out and the supernatant was used for IP. Then the precleared samples were incubated with 2 μg of panacetylated histone H4 antibody (ChIP assay kit; Upstate Biotechnology) or anti-HDAC2 antibody from Santa Cruz Biotechnology. As a control, anti-rabbit IgG antibody was added for 1 hour in the cold. The protein A/G bead slurry was added to each reaction and was rotated overnight. The next day, the beads were washed extensively, and the DNA was reverse crosslinked, eluted in elution buffer, and stored at −80° C. until used for sequencing or PCR validation assays. […] This immunoprecipitated DNA was used for PCR amplification by using the specific gene (IL-8 for humans and MCP-1 for mice) promoter PCR assays. PCR primers were used for the IL-8 promoter (forward: 5′-[…]-3′ and reverse: 5′-[…]-3′) and the MCP-1 promoter (forward: 5′-[…]-3′ and reverse: 5′-[…]-3′).

HDAC2 = format: cell-based, human; settings: COPD alveolar macrophages
Protocol: as §3
All immunoblots were performed by using protocols as described previously (Barnes, P. J., N Engl J Med 343, 269-280 (2000)). Rabbit anti-HDAC2 antibody from Santa Cruz Biotechnology (Santa Cruz, Calif.) was used at 1:500 dilutions. Rabbit anti-5-nitroso-cysteine antibody from Alpha diagnostics was used at 1:500 dilutions. Rabbit anti-nitro-tyrosine antibody from Cell Signaling Technology, was used at 1:250 dilution. Rabbit anti-ubiquitin antibody from Santa Cruz Biotechnology (Santa Cruz, Calif.) was used at 1:1000 dilutions. Rabbit anti-GR antibody from Santa Cruz Biotechnology (Santa Cruz, Calif.) was used at a dilution of 1:1000. Rabbit anti-MMP9 antibody from Sigma Aldrich was used at 1:500 dilutions. Rabbit anti-acetyl-lysine antibody from Abcam was used at 1:750 dilutions. Rabbit anti-lamin-B1 from Santa Cruz Biotechnology (Santa Cruz, Calif.) was used at 1:1000 dilutions as a loading control. The Image J program was used for densitometry analyses.
Total RNA was extracted from the cells by lysis and specific binding to a silica membrance (Qiagen RNeasy kit, Qiagen, Valencia, Calif.), and qRT-PCR was performed by using primers and probe sets for human IL-8, NQO1, GCLM, and iNOS (Assay-on-Demand, Applied Biosystems, Foster City, Calif.). A real-time fluorescent PCR system (ABI 7000 Taqman system, Applied Biosystems) was used to perform these assays. β-actin was used as the normalization control.

C[S+]([O-])CCCCN=C=S (stereo not drawn) [sulforaphane]
phagocytosis of FITC-labeled nontypeable Haemophilus influenzae [1]: significantly enhanced phagocytosis | phagocytosis of FITC-labeled Pseudomonas aeruginosa (Pseudomonas aeruginosa; COPD alveolar macrophages, compared to vehicle): significantly enhanced phagocytosis | bacterial phagocytosis (Pseudomonas aeruginosa; Nrf2-siRNA transfected macrophages): failed to do so | bacterial phagocytosis (Pseudomonas aeruginosa; alveolar macrophages transfected with control ssRNA): enhanced bacterial phagocytosis | HDAC2 binding in the IL-8 promoter (IL-8 promoter; COPD alveolar macrophages): significantly increased the levels of HDAC2 binding | HDAC2 binding in the IL-8 promoter (IL-8 promoter; in the presence of buthionine sulfoximine): failed to increase HDAC2 binding | histone acetylation on the IL-8 promoter (IL-8 promoter; sulforaphane treatment with DEX): concomitant reduction | histone acetylation in IL-8 promoter (IL-8 promoter; sulforaphane, baseline and after LPS): decrease in histone acetylation | HDAC2 mRNA levels (HDAC2): without altering the levels of HDAC2 mRNA; also recorded: no effect on HDAC2 mRNA expression | HDAC2 protein levels (HDAC2): up-regulated HDAC2 protein levels | secretory levels of active MMP9 (MMP9): significantly reduced | levels of S-nitrosylated MMP9 (MMP9; biotin-switch assay): significantly reduced

Source: patent US20130039928A1, “COMPOSITIONS AND METHODS FOR REVERSING CORTICOSTEROID RESISTANCE OR TREATING RESPIRATORY INFECTIONS” (priority 2010, published 2013)
